Experimental data published in article PMC5118688 (Scientific Reports, 2016).
Converted amounts (≈) assume the structure as drawn. Read-outs that look alike come from different tables or passages of the source.

Experiments:
[1] = ref Hua et al. 11; cited from earlier work
[2] = system: mAb against a generic hapten (3-(4-dimethoxyphosphorothioyloxy phenyl)propanoic acid); details: ref Liu et al. 10; cited from earlier work
[3] = ref Liang et al. 9; cited from earlier work
mAb4D11 = assay: optimized mAb4D11-based dcELISA; details: mAb4D11-based dcELISA
Procedure: (§1) The dcELISA procedure was performed as below. First, the plate (Costar, Corning Inc., New York, USA) was coated with coating antigen (100 μL/well in 1 × PBS) for 1 h at 37 °C. Then, the wells were washed four times with PBST (1 × PBS with 0.05% (v/v) Tween-20) and blocked with 2% skim milk (200 μL/well) for 1 h at 37 °C. After washing four times, 50 μL analyte in MeOH-water solution and 50 μL mAb-HRP in PBS were added. The plate was incubated for 1 h at 37 °C and then washed four times before adding TMB solution (100 μL/well). After incubation for 15 min at 37 °C, 50 μL/well of H2SO4 (2 mol/L) was added to stop the reaction, and the absorbance was recorded at 450 nm using the Model 680 plate reader (Bio-Rad, USA).
(§2) 18 kinds of O,O-dimethyl OPs and 6 kinds of O,O-diethyl OPs were purchased from National Standards of China and used for the selectivity and sensitivity study using the optimized dcELISA procedure. […] The IC50 value and detection limit of each OP were calculated. The CR value, which was used to evaluate the selectivity of the method, was calculated using the following equation:

mAb3C9 [4] = assay: mimotope-based dcELISA (mAb3C9 and M20-GST-BAD/SA-HRP competitor); format: binding, mouse; details: for CR (%): M20-GST-BAD, (IC50 of parathion-methyl/IC50 of pesticide) × 100; for LOD (IC10): mAb3C9, M20-GST-BAD; for IC50 ± SD: mAb3C9, competitor M20-GST-BAD
Procedure: To develop a mimotope-based dcELISA, the biotinylated mimotope fusion protein was firstly assembled with streptavidin-HRP conjugate (SA-HRP) utilized the high affinity of biotin and streptavidin. The assembly process was just mixing a certain amount of biotinylated mimotope fusion protein with SA-HRP and incubating them at 4 °C overnight before use as an HRP-labeled competitor.
An innovative mimotope-based dcELISA was developed and performed as below. […] TMB solution (100 μL/well) was added and incubated for 15 min at 37 °C.
The optimal condition for mimotope-based dcELISA was optimized as chemosynthesized antigen-based dcELISA. The selectivity and sensitivity of the developed mimotope-based dcELISA for the 24 OPs were also determined under the optimum condition.

mAb3C9 [5] = assay: optimized chemosynthesized antigen-based dcELISA (mAb3C9 and hapten 6-OVA); details: for CR (%): Hapten 6-OVA, (IC50 of parathion-methyl/IC50 of pesticide) × 100; for LOD (IC10): mAb3C9, Hapten 6-OVA; for IC50 ± SD: mAb3C9, coating antigen Hapten 6-OVA
Procedure: as §1, §2

COP(=S)(OC)Oc1ccc([N+](=O)[O-])cc1Cl [Isochlorthion]
IC50 [1]: 0.5766 µg/mL (≈ 1.94 µM)

CCOC(=O)CC(SP(=S)(OC)OC)C(=O)OCC (centres unmarked) [Malathion]
IC50 [1]: > 100 µg/mL
IC50 [2]: 10.47 µg/mL (≈ 31.7 µM)
IC50 [3]: 0.0301 µg/mL (≈ 0.0911 µM)

COc1nn(CSP(=S)(OC)OC)c(=O)s1 [Methidathion]
CR (%) (mAb4D11): < 0.3%
IC50 (mAb4D11): > 5 µg/mL
CR (%) (mAb3C9 [4]): 157.6%
LOD (IC10) (mAb3C9 [4]): 0.0006 µg/mL
IC50 ± SD (mAb3C9 [4]): 0.0032 ± 0.0002 µg/mL (≈ 0.0106 µM)
CR (%) (mAb3C9 [5]): 162.9%
LOD (IC10) (mAb3C9 [5]): 0.0006 µg/mL
IC50 ± SD (mAb3C9 [5]): 0.0029 ± 0.0001 µg/mL (≈ 0.00959 µM)
IC50 [3]: 0.1917 µg/mL (≈ 0.634 µM)

CNC(=O)/C=C(\C)OP(=O)(OC)OC [Monocrotophos]
CR (%) (mAb4D11): 0.5%
IC50 (mAb4D11): 2.9145 µg/mL (≈ 13.1 µM)
LOD (mAb4D11): 594.3 ng/mL
CR (%) (mAb3C9 [4]): 2.5%
LOD (IC10) (mAb3C9 [4]): 0.0616 µg/mL
IC50 ± SD (mAb3C9 [4]): 0.2014 ± 0.0043 µg/mL (≈ 0.902 µM)
CR (%) (mAb3C9 [5]): 2.6%
LOD (IC10) (mAb3C9 [5]): 0.0432 µg/mL
IC50 ± SD (mAb3C9 [5]): 0.1791 ± 0.0086 µg/mL (≈ 0.803 µM)

CCOP(=O)(OCC)Oc1ccc([N+](=O)[O-])cc1 [Paraoxon-ethyl]
IC50 [1]: 0.1622 µg/mL (≈ 0.589 µM)

COP(=O)(OC)Oc1ccc([N+](=O)[O-])cc1 [Paraoxon-methyl]
IC50 [1]: 0.1187 µg/mL (≈ 0.48 µM)
CR (%) (mAb4D11): 0.5%
IC50 (mAb4D11): 2.6433 µg/mL (≈ 10.7 µM)
LOD (mAb4D11): 512.5 ng/mL
CR (%) (mAb3C9 [4]): 1.7%
LOD (IC10) (mAb3C9 [4]): 0.0632 µg/mL
IC50 ± SD (mAb3C9 [4]): 0.2949 ± 0.0093 µg/mL (≈ 1.19 µM)
CR (%) (mAb3C9 [5]): 2.0%
LOD (IC10) (mAb3C9 [5]): 0.0524 µg/mL
IC50 ± SD (mAb3C9 [5]): 0.231 ± 0.0121 µg/mL (≈ 0.935 µM)

CCOP(=S)(OCC)Oc1ccc([N+](=O)[O-])cc1 [Parathion]
IC50 [1]: 0.0113 µg/mL (≈ 0.0388 µM)
CR (%) (mAb4D11): 8.9%
IC50 (mAb4D11): 0.1636 µg/mL (≈ 0.562 µM)
LOD (mAb4D11): 17.5 ng/mL
CR (%) (mAb3C9 [4]): 0.2%
LOD (IC10) (mAb3C9 [4]): 0.4392 µg/mL
IC50 ± SD (mAb3C9 [4]): 2.3284 ± 0.0514 µg/mL (≈ 7.99 µM)
CR (%) (mAb3C9 [5]): 0.2%
LOD (IC10) (mAb3C9 [5]): 0.4663 µg/mL
IC50 ± SD (mAb3C9 [5]): 2.4125 ± 0.061 µg/mL (≈ 8.28 µM)
IC50 [3]: > 1 µg/mL

COP(=S)(OC)SCN1C(=O)c2ccccc2C1=O [Phosmet]
CR (%) (mAb4D11): < 0.3%
IC50 (mAb4D11): > 5 µg/mL
CR (%) (mAb3C9 [4]): 332.9%
LOD (IC10) (mAb3C9 [4]): 0.0003 µg/mL
IC50 ± SD (mAb3C9 [4]): 0.0015 ± 0.0001 µg/mL (≈ 0.00473 µM)
CR (%) (mAb3C9 [5]): 323.6%
LOD (IC10) (mAb3C9 [5]): 0.0003 µg/mL
IC50 ± SD (mAb3C9 [5]): 0.0014 ± 0.0001 µg/mL (≈ 0.00441 µM)
IC50 [3]: 0.1597 µg/mL (≈ 0.503 µM)

CCOP(=S)(OCC)O/N=C(\C#N)c1ccccc1 [Phoxim]
IC50 [1]: > 100 µg/mL
CR (%) (mAb4D11): 5.9%
IC50 (mAb4D11): 0.2441 µg/mL (≈ 0.818 µM)
LOD (mAb4D11): 49.5 ng/mL
CR (%) (mAb3C9 [4]): 0.2%
LOD (IC10) (mAb3C9 [4]): 0.4336 µg/mL
IC50 ± SD (mAb3C9 [4]): 2.5779 ± 0.0721 µg/mL (≈ 8.64 µM)
CR (%) (mAb3C9 [5]): 0.2%
LOD (IC10) (mAb3C9 [5]): 0.4354 µg/mL
IC50 ± SD (mAb3C9 [5]): 2.6524 ± 0.112 µg/mL (≈ 8.89 µM)

CCN(CC)c1nc(C)cc(OP(=S)(OC)OC)n1 [Pirimiphos-methyl]
CR (%) (mAb4D11): 23.4%
IC50 (mAb4D11): 0.0621 µg/mL (≈ 0.203 µM)
LOD (mAb4D11): 9.1 ng/mL
CR (%) (mAb3C9 [4]): 6.0%
LOD (IC10) (mAb3C9 [4]): 0.0222 µg/mL
IC50 ± SD (mAb3C9 [4]): 0.0837 ± 0.0038 µg/mL (≈ 0.274 µM)
CR (%) (mAb3C9 [5]): 6.0%
LOD (IC10) (mAb3C9 [5]): 0.0156 µg/mL
IC50 ± SD (mAb3C9 [5]): 0.0774 ± 0.0033 µg/mL (≈ 0.253 µM)

CCOP(=S)(OCC)Oc1cnc2ccccc2n1 [Quinalphos]
CR (%) (mAb4D11): 7.9%
IC50 (mAb4D11): 0.1842 µg/mL (≈ 0.617 µM)
LOD (mAb4D11): 32.5 ng/mL
CR (%) (mAb3C9 [4]): 0.2%
LOD (IC10) (mAb3C9 [4]): 0.5318 µg/mL
IC50 ± SD (mAb3C9 [4]): 3.2266 ± 0.0592 µg/mL (≈ 10.8 µM)
CR (%) (mAb3C9 [5]): 0.2%
LOD (IC10) (mAb3C9 [5]): 0.5123 µg/mL
IC50 ± SD (mAb3C9 [5]): 2.8243 ± 0.0952 µg/mL (≈ 9.47 µM)

COP(=O)(OC)O/C(=C\Cl)c1cc(Cl)c(Cl)cc1Cl [Tetrachlorvinphos]
CR (%) (mAb4D11): 0.6%
IC50 (mAb4D11): 2.4313 µg/mL (≈ 6.64 µM)
LOD (mAb4D11): 536.3 ng/mL
CR (%) (mAb3C9 [4]): 8.5%
LOD (IC10) (mAb3C9 [4]): 0.0112 µg/mL
IC50 ± SD (mAb3C9 [4]): 0.0597 ± 0.0033 µg/mL (≈ 0.163 µM)
CR (%) (mAb3C9 [5]): 8.6%
LOD (IC10) (mAb3C9 [5]): 0.0089 µg/mL
IC50 ± SD (mAb3C9 [5]): 0.0544 ± 0.0021 µg/mL (≈ 0.149 µM)

COP(=S)(OC)Oc1c(Cl)cc(C)cc1Cl [Tolclofos-methyl]
IC50 [1]: > 100 µg/mL
IC50 [2]: 1.1 µg/mL (≈ 3.65 µM)
CR (%) (mAb4D11): 46.2%
IC50 (mAb4D11): 0.0314 µg/mL (≈ 0.104 µM)
LOD (mAb4D11): 9.5 ng/mL
CR (%) (mAb3C9 [4]): 61.3%
LOD (IC10) (mAb3C9 [4]): 0.0017 µg/mL
IC50 ± SD (mAb3C9 [4]): 0.0083 ± 0.0004 µg/mL (≈ 0.0276 µM)
CR (%) (mAb3C9 [5]): 70.2%
LOD (IC10) (mAb3C9 [5]): 0.0012 µg/mL
IC50 ± SD (mAb3C9 [5]): 0.0066 ± 0.0003 µg/mL (≈ 0.0219 µM)
